Experimental data reported in paper PMC6492180, “Cytome micronucleus assays with a metabolically competent human derived liver cell line (Huh6): A promising approach for routine testing of chemicals?” (Environmental and Molecular Mutagenesis, 2018).
Like-named read-outs stand apart in the source and are kept apart here. Marks after values point to notes of the source that are not given here.

How the values were obtained:
Human lymphocytes = details: Human lymphocytes, cited from earlier work
Huh6 cells = details: for Lowest effective concentration (LOEC) in micronucleus experiments: Huh6
Protocol: All experiments were performed in duplicate.
3.8–4.0 × 10^5 cells per well were seeded into 6‐well plates with 3 mL of RPMI (4% FBS) for 12 hr, then dilutions of stock solutions of the diagnostic mutagens were added for different time periods (4, 24, and 48 hr). In each experimental series solvent controls were included. Subsequently, the cells were washed twice with 3.0 mL medium. […] Finally, the cells were washed and trypsinised. Afterwards the cells were washed twice with 8.0 mL RPMI and collected on slides by cytocentrifugation (600 rpm, 5 min). The slides were air dried, fixed, and stained with DiffQuick according to the instructions of the manufacturer. For each experimental point, two cultures were tested per dose. From each culture ≥1,000 BN cells were evaluated under 400‐fold magnification (Nikon Photophot‐FXA, Tokyo, Japan). At least 2,000 binucleated cells were analyzed per dose for the determination of the different nuclear anomalies (MN, NBuds, and NBs).
The experiments were performed as described in the previous chapter. The cells were exposed only to one dose of the different mutagens and were cultivated after the seeding in 6‐well plates which contained 4% or 10% FBS in RPMI, respectively.
Data were evaluated by generalized linear model with Poisson counts. Chi‐square tests for overdispersion were applied. […] P values ≤0.05 were considered statistically significant.
^150-60 000 cells were seeded in 6 well plates with 3 ml RPMI (4% FBS), subsequently different solutions of the test compound (dissolved in medium) were added. After treatment for different time periods, the cells was washed and processed as described in the Material and Method section. […] From each culture 1000 binoculated cells were evaluated. BN-MN – number of micronucleated cells; MN - total number of micronuclei; CBPI – cytokinesis-block proliferation index
^1The experiments were conducted essentially as described in the footnote of Table S1A-I. *p≤0.05

Hep3B = details: Hep3B; ref Majer et al., 2004; cited from earlier work
HepG2 = details: HepG2, cited from earlier work; for MN induction after 28 hr compared with 1 hr exposure (in words): ref Natarajan and Darroudi (1991)
[1] = ref IARC (2018); cited from earlier work
HepaRG = details: HepaRG; ref Josse et al., 2012; cited from earlier work
[2] = 10% FBS, 24 hr treatment, 100 µM
[3] = ref Valentin‐Severin et al., 2003
[4] = 10% FBS, 24 hr treatment, 10 µg/ml

## CN(C)N=O [NDMA, N‐nitrosodimethylamine]
Human lymphocytes; + S9, ref Katic et al., 2010
  Lowest effective concentration (LOEC) in micronucleus experiments: Negative
  NOEC (highest no observable effect concentration tested): 67500 µM
Huh6 cells; 4% FBS
  MN effects after 24 hr (or longer) compared with 4 hr treatment (in words): more pronounced effects
Huh6 cells; 4% FBS, 4hrs, 50 mM
  BN-MN (number of micronucleated cells): 21.0 ± 1.4 ‰
  Bridges: 0.5 ± 0.7 ‰
  Buds: 16.5 ± 2.1 ‰
  CBPI: 1.7 ± 0.1
  MN (total number of micronuclei): 21.5 ± 0.7 ‰
Huh6 cells; 4% FBS, 4hrs, 100 mM
  BN-MN (number of micronucleated cells): 24.0 ± 2.8 ‰
  Bridges: 0.5 ± 0.7 ‰
  Buds: 20.0 ± 1.4 ‰
  CBPI: 1.7 ± 0.0
  MN (total number of micronuclei): 26.5 ± 0.7 ‰
Huh6 cells; 4% FBS, 4hrs, 200 mM
  BN-MN (number of micronucleated cells): 26.5 ± 2.1* ‰
  Bridges: 0.5 ± 0.7 ‰
  Buds: 25.5 ± 5.0* ‰
  CBPI: 1.5 ± 0.0
  MN (total number of micronuclei): 27.5 ± 0.7* ‰
Huh6 cells; 4% FBS, 24hrs, 25 mM
  BN-MN (number of micronucleated cells): 20.5 ± 0.7 ‰
  Bridges: 0.0 ± 0.0 ‰
  Buds: 7.0 ± 1.4 ‰
  CBPI: 1.8 ± 0.1
  MN (total number of micronuclei): 20.5 ± 0.7 ‰
Huh6 cells; 4% FBS, 24hrs, 50 mM
  BN-MN (number of micronucleated cells): 21.5 ± 5.0 ‰
  Bridges: 0.5 ± 0.7 ‰
  Buds: 9.5 ± 2.1* ‰
  CBPI: 1.8 ± 0.1
  MN (total number of micronuclei): 22.5 ± 3.5 ‰
Huh6 cells; 4% FBS, 24hrs, 100 mM
  BN-MN (number of micronucleated cells): 30.0 ± 2.8* ‰
  Bridges: 3.5 ± 0.7 ‰
  Buds: 13.0 ± 4.2* ‰
  CBPI: 1.7 ± 0.0
  MN (total number of micronuclei): 32.0 ± 2.8* ‰
Huh6 cells; 4% FBS, 48hrs, 25 mM
  BN-MN (number of micronucleated cells): 20.5 ± 0.7 ‰
  Bridges: 0.5 ± 0.7 ‰
  Buds: 23.0 ± 2.8 ‰
  CBPI: 1.8 ± 0.0
  MN (total number of micronuclei): 21.5 ± 2.1 ‰
Huh6 cells; 4% FBS, 48hrs, 50 mM
  BN-MN (number of micronucleated cells): 22.0 ± 4.2 ‰
  Bridges: 1.0 ± 1.4 ‰
  Buds: 27.0 ± 4.2 ‰
  CBPI: 1.8 ± 0.0
  MN (total number of micronuclei): 23.5 ± 5.0 ‰
Huh6 cells; 4% FBS, 48hrs, 100 mM
  BN-MN (number of micronucleated cells): 40.5 ± 2.1* ‰
  Bridges: 3.0 ± 1.4 ‰
  Buds: 35.5 ± 3.5* ‰
  CBPI: 1.7 ± 0.1
  MN (total number of micronuclei): 53.0 ± 4.2* ‰
Huh6 cells; [2]
  BN-MN (number of micronucleated cells): 33.0 ± 2.8*
  Bridges: 3.5 ± 0.7
  Buds: 28.0 ± 2.8
  CBPI: 1.9 ± 0.0
  MN (total number of micronuclei): 34.5 ± 5.0*
Huh6 cells
  Lowest effective concentration (LOEC) in micronucleus experiments: 100000 µM
Hep3B
  Lowest effective concentration (LOEC) in micronucleus experiments: Negative
  NOEC (highest no observable effect concentration tested): 180000 µM
HepG2; ref Majer et al., 2004
  Lowest effective concentration (LOEC) in micronucleus experiments: 30000 µM
HepG2
  MN induction after 28 hr compared with 1 hr exposure (in words): stronger effects
HepG2; [3]
  Lowest effective concentration (LOEC) in micronucleus experiments: 10000 µM
[1]
  IARC classification: Methylation of the DNA; activation: CYP2E1; IARC: Group 2A

## COS(C)(=O)=O [MMS, Methyl methanesulfonate]
Human lymphocytes; ref Andreoli et al., 1999
  Lowest effective concentration (LOEC) in micronucleus experiments: 15.4 µg/mL
Human lymphocytes; ref Fowler et al., 2014
  Lowest effective concentration (LOEC) in micronucleus experiments: 51.0 µg/mL
HepaRG
  Lowest effective concentration (LOEC) in micronucleus experiments: 9.9 (Josse et al., 2012) μg/mL
  MN formation with the longer exposure time, treatment for 1 or 7 days (in words): no such effects
Huh6 cells; 4% FBS
  MN effects after 24 hr (or longer) compared with 4 hr treatment (in words): similar
Huh6 cells; 4% FBS, 4hrs, 6 µg/ml
  BN-MN (number of micronucleated cells): 20.5 ± 3.5 ‰
  Bridges: 0.5 ± 0.7 ‰
  Buds: 20.5 ± 3.5 ‰
  CBPI: 1.9 ± 0.1
  MN (total number of micronuclei): 21.0 ± 4.2 ‰
Huh6 cells; 4% FBS, 4hrs, 10 µg/ml
  BN-MN (number of micronucleated cells): 32.5 ± 3.5* ‰
  Bridges: 3.5 ± 0.7 ‰
  Buds: 37.0 ± 4.2* ‰
  CBPI: 1.7 ± 0.1
  MN (total number of micronuclei): 39.5 ± 0.7* ‰
Huh6 cells; 4% FBS, 4hrs, 40 µg/ml
  BN-MN (number of micronucleated cells): 40.0 ± 7.1* ‰
  Bridges: 3.5 ± 2.1 ‰
  Buds: 42.0 ± 17.0* ‰
  CBPI: 1.5 ± 0.1
  MN (total number of micronuclei): 50.5 ± 7.8 ‰
Huh6 cells; 4% FBS, 24hrs, 0.4 µg/ml
  BN-MN (number of micronucleated cells): 16.5 ± 0.7 ‰
  Bridges: 0.5 ± 0.7 ‰
  Buds: 9.5 ± 0.7 ‰
  CBPI: 1.7 ± 0.0
  MN (total number of micronuclei): 16.5 ± 0.7 ‰
Huh6 cells; 4% FBS, 24hrs, 2 µg/ml
  BN-MN (number of micronucleated cells): 21.5 ± 2.1 ‰
  Bridges: 3.0 ± 0.0 ‰
  Buds: 17.5 ± 0.7 ‰
  CBPI: 1.7 ± 0.0
  MN (total number of micronuclei): 23.5 ± 2.1 ‰
Huh6 cells; 4% FBS, 24hrs, 10 µg/ml
  BN-MN (number of micronucleated cells): 29.5 ± 2.1* ‰
  Bridges: 8.0 ± 1.4 ‰
  Buds: 27.0 ± 1.4* ‰
  CBPI: 1.6 ± 0.0
  MN (total number of micronuclei): 31.0 ± 2.8* ‰
Huh6 cells; 4% FBS, 48 hr
  Change of MN rates after 48 hr treatment (in words): slight decrease
Huh6 cells; 4% FBS, 48hrs, 0.4 µg/ml
  BN-MN (number of micronucleated cells): 18.0 ± 1.4 ‰
  Bridges: 0.5 ± 0.7 ‰
  Buds: 19.0 ± 1.4 ‰
  CBPI: 1.8 ± 0.0
  MN (total number of micronuclei): 20.0 ± 1.4 ‰
Huh6 cells; 4% FBS, 48hrs, 2 µg/ml
  BN-MN (number of micronucleated cells): 20.5 ± 0.7 ‰
  Bridges: 2.5 ± 0.7 ‰
  Buds: 19.5 ± 0.7 ‰
  CBPI: 1.9 ± 0.0
  MN (total number of micronuclei): 23.5 ± 0.7 ‰
Huh6 cells; 4% FBS, 48hrs, 10 µg/ml
  BN-MN (number of micronucleated cells): 24.0 ± 2.8 ‰
  Bridges: 0.5 ± 0.7 ‰
  Buds: 27.0 ± 1.4 ‰
  CBPI: 1.7 ± 0.0
  MN (total number of micronuclei): 25.5 ± 3.5 ‰
Huh6 cells; [4]
  BN-MN (number of micronucleated cells): 27.5 ± 2.1*
  Bridges: 0.0 ± 0.0
  Buds: 20.0 ± 2.8
  CBPI: 1.8 ± 0.0
  MN (total number of micronuclei): 30.0 ± 1.4*
Huh6 cells; 24 hr treatment
  MN frequencies with 10% serum compared with 4% serum (in words): not increased
Huh6 cells
  Lowest effective concentration (LOEC) in micronucleus experiments: 10.0 µg/mL
HepG2
  MN induction after 28 hr compared with 1 hr exposure (in words): less pronounced effect
HepG2; [3]
  Lowest effective concentration (LOEC) in micronucleus experiments: 11.0 (Valentin‐Severin et al., 2003) μg/mL
[1]
  IARC classification: Methylation of DNA bases; causes gene mutations and CA; IARC: Group 2A
